We go through 17 molecules from patent US11866450B2, “Modulators of Cystic Fibrosis Transmembrane Conductance regulator, pharmaceutical compositions, methods of treatment, and process for making the modulators” (priority 2018, dated 2024).

The assay has as its target CFTR-mediated chloride transport (Homo sapiens, UniProt P13569). Type of assay: cell-based. As to conditions: enteroid cells incubated with test compound 18-24 hours, acute 10 μM forskolin and 300 nM Compound III; for Max. Activity: % of chloride transport with 3 μM Compound A, 3 μM Compound II and 300 nM acute Compound III triple combination control. A digest of the protocol:
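Membrane-potential fluorescence AUC over 15 min quantified CFTR chloride transport after acute forskolin (10 μM), IBMX (100 μM) and Compound III (300 nM) in chloride-free buffer. Human enteroid cells were pretreated with compound for 18–24 h; % Activity is relative to 3 μM Compound A + 3 μM Compound II + 300 nM Compound III.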

Molecules are shown by their SMILES. pEC50: −log10 of the molar value.

Chain of CFTR-mediated chloride transport (P13569 whole entry, looked up): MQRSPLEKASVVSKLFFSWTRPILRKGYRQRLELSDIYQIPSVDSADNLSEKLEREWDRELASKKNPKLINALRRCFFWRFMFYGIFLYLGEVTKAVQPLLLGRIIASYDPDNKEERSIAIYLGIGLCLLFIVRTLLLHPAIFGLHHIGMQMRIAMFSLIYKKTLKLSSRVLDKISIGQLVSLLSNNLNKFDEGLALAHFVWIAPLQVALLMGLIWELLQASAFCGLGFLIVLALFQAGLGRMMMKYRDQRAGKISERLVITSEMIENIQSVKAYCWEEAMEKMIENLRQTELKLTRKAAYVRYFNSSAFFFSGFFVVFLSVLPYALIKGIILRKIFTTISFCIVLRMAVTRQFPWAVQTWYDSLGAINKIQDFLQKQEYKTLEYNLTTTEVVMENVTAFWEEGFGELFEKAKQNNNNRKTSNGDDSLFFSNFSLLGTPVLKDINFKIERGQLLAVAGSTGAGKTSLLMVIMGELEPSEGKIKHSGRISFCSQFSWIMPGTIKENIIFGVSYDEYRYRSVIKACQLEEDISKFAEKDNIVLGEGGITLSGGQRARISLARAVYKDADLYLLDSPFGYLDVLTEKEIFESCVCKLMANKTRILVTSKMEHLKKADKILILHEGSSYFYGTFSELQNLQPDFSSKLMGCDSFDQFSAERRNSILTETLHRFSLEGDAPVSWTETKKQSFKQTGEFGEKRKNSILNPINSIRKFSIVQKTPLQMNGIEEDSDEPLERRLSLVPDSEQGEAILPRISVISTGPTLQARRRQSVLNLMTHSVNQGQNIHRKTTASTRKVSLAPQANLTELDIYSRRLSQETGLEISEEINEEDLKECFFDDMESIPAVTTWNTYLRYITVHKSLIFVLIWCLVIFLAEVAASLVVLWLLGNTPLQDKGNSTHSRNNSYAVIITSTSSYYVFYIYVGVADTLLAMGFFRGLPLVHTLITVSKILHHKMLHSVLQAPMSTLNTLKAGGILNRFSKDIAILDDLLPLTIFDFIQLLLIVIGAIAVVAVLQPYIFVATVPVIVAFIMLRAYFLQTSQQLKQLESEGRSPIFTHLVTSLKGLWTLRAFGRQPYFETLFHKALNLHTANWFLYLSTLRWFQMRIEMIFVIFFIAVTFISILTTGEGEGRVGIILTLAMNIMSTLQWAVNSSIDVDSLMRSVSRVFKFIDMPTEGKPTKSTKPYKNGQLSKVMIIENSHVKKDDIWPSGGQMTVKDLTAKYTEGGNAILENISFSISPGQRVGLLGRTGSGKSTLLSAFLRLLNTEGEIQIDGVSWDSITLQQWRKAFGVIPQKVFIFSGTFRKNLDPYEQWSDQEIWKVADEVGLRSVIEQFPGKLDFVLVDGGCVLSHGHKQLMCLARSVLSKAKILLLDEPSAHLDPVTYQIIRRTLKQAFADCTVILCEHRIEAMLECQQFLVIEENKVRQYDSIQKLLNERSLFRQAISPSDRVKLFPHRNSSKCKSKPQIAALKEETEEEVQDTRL

Consider `CC1(C)C[C@@H]2CN1c1nc(-n3ccc(OCCC4(C(F)(F)F)CC4)n3)ccc1C(=O)NS(=O)(=O)c1cccc(n1)NCCO2` (single isomer, unassigned) [Compound 75, 12,12-dimethyl-8-(3-{2-[1-(trifluoromethyl)cyclopropyl]ethoxy}-1H-pyrazol-1-yl)-15-oxa-2λ^6-thia-3,9,11,18,23-pentaazatetracyclo[17.3.1.111,14.05,10]tetracosa-1(22),5(10),6,8,19(23),20-hexaene-2,2,4-trione], for which the pEC50 is more than 6.00 and the “Max. Activity” value was “+++ (+++ is >60%)”.

In the case of `Cc1c2cnn1CCCC[C@H]1CN(c3nc(-n4ccc(OCCC5(C(F)(F)F)CC5)n4)ccc3C(=O)NS2(=O)=O)C(C)(C)C1` (single isomer, unassigned) [Compound 80, 21,21,23-Trimethyl-4-(3-{2-[1-(trifluoromethyl)cyclopropyl]ethoxy}-1H-pyrazol-1-yl)-10λ^6-thia-1,3,9,13,14-pentaazatetracyclo[17.2.1.111,14.02,7]tricosa-2,4,6,11(23),12-pentaene-8,10,10-trione], the pEC50 was less than 5.52 and the “Max. Activity” value is on record as “+ (+ is <30%)”.

As for `Cc1c2cnn1CCCC[C@H]1CN(c3nc(-n4ccc(OCCC5(C(F)(F)F)CC5)n4)ccc3C(=O)NS2(=O)=O)C(C)(C)C1` (single isomer, unassigned) [Compound 81, 21,21,23-trimethyl-4-(3-{2-[1-(trifluoromethyl)cyclopropyl]ethoxy}-1H-pyrazol-1-yl)-10λ^6-thia-1,3,9,13,14-pentaazatetracyclo[17.2.1.111,14.02,7]tricosa-2,4,6,11(23),12-pentaene-8,10,10-trione], the pEC50 is more than 6.00 and the “Max. Activity” value was “++ (++ is 30-60%)”.

Turning to `CC1(C)C[C@H]2CCCCNc3cccc(n3)S(=O)(=O)NC(=O)c3ccc(-n4cc(OCCC5(C(F)(F)F)CC5)cn4)nc3N1C2` (single isomer, unassigned) [Compound 82, 12,12-Dimethyl-8-(4-{2-[1-(trifluoromethyl)cyclopropyl]ethoxy}-1H-pyrazol-1-yl)-2λ^6-thia-3,9,11,19,24-pentaazatetracyclo[18.3.1.111,14.05,10]pentacosa-1(23),5,7,9,20(24),21-hexaene-2,2,4-trione], the pEC50 is less than 5.52 and the “Max. Activity” value is recorded as “+ (+ is <30%)”.

Consider `CC1(C)C[C@H]2CCCCNc3cccc(n3)S(=O)(=O)NC(=O)c3ccc(-n4cc(OCCC5(C(F)(F)F)CC5)cn4)nc3N1C2` (single isomer, unassigned) [Compound 83, 12,12-dimethyl-8-(4-{2-[1-(trifluoromethyl)cyclopropyl]ethoxy}-1H-pyrazol-1-yl)-2λ^6-thia-3,9,11,19,24-pentaazatetracyclo[18.3.1.111,14.05,10]pentacosa-1(23),5,7,9,20(24),21-hexaene-2,2,4-trione], for which the pEC50 is more than 6.00 and the “Max. Activity” value is recorded as “++ (++ is 30-60%)”.

For `CC1(C)C[C@H]2CCCCc3cccc(n3)S(=O)(=O)NC(=O)c3ccc(-n4ccc(OCCC5(C(F)(F)F)CC5)n4)nc3N1C2` (single isomer, unassigned) [Compound 86, 12,12-dimethyl-8-(3-{2-[1-(trifluoromethyl)cyclopropyl]ethoxy}-1H-pyrazol-1-yl)-2λ^6-thia-3,9,11,23-tetraazatetracyclo[17.3.1.111,14.05,10]tetracosa-1(23),5,7,9,19,21-hexaene-2,2,4-trione], the pEC50 is less than 5.52 and the “Max. Activity” value is recorded as “+ (+ is <30%)”.

Take `CC1(C)C[C@H]2CCCCc3cccc(n3)S(=O)(=O)NC(=O)c3ccc(-n4ccc(OCCC5(C(F)(F)F)CC5)n4)nc3N1C2` (single isomer, unassigned) [Compound 87, 12,12-dimethyl-8-(3-{2-[1-(trifluoromethyl)cyclopropyl]ethoxy}-1H-pyrazol-1-yl)-2λ^6-thia-3,9,11,23-tetraazatetracyclo[17.3.1.111,14.05,10]tetracosa-1(23),5,7,9,19,21-hexaene-2,2,4-trione]: the pEC50 was more than 6.00 and the “Max. Activity” value is “+++ (+++ is >60%)”.

Regarding `Cc1nn2cc1S(=O)(=O)NC(=O)c1ccc(-n3ccc(OCCC4(C(F)(F)F)CC4)n3)nc1N1C[C@H](CCCC2)CC1(C)C` (single isomer, unassigned) [Compound 91, 12,21,21-Trimethyl-4-(3-{2-[1-(trifluoromethyl)cyclopropyl]ethoxy}-1H-pyrazol-1-yl)-10λ^6-thia-1,3,9,13,14-pentaazatetracyclo[17.2.1.111,14.02,7]tricosa-2,4,6,11(23),12-pentaene-8,10,10-trione], the pEC50 is less than 5.52 and the “Max. Activity” value is “+ (+ is <30%)”.

On to `Cc1nn2cc1S(=O)(=O)NC(=O)c1ccc(-n3ccc(OCCC4(C(F)(F)F)CC4)n3)nc1N1C[C@H](CCCC2)CC1(C)C` (single isomer, unassigned) [Compound 92, 12,21,21-trimethyl-4-(3-{2-[1-(trifluoromethyl)cyclopropyl]ethoxy}-1H-pyrazol-1-yl)-10λ^6-thia-1,3,9,13,14-pentaazatetracyclo[17.2.1.111,14.02,7]tricosa-2,4,6,11(23),12-pentaene-8,10,10-trione], for which the pEC50 was more than 6.00 and the “Max. Activity” value was “++ (++ is 30-60%)”.

In the case of `CC1(C)C[C@H]2CCCCOc3ccc(cc3)S(=O)(=O)NC(=O)c3ccc(-n4ccc(OCCC5(C(F)(F)F)CC5)n4)nc3N1C2` (single isomer, unassigned) [Compound 95, 12,12-dimethyl-8-(3-{2-[1-(trifluoromethyl)cyclopropyl]ethoxy}-1H-pyrazol-1-yl)-19-oxa-2λ^6-thia-3,9,11-triazatetracyclo[18.2.2.111,14.05,10]pentacosa-1(22),5,7,9,20,23-hexaene-2,2,4-trione], the pEC50 was more than 6.00 and the “Max. Activity” value was “++ (++ is 30-60%)”.

`CC1(C)C[C@H]2CCCCOc3ccc(cc3)S(=O)(=O)NC(=O)c3ccc(-n4ccc(OCCC5(C(F)(F)F)CC5)n4)nc3N1C2` (single isomer, unassigned) [Compound 96, 12,12-dimethyl-8-(3-{2-[1-(trifluoromethyl)cyclopropyl]ethoxy}-1H-pyrazol-1-yl)-19-oxa-2λ^6-thia-3,9,11-triazatetracyclo[18.2.2.111,14.05,10]pentacosa-1(22),5,7,9,20,23-hexaene-2,2,4-trione]: the pEC50 was less than 5.52 and the “Max. Activity” value is given as “+ (+ is <30%)”.

As to `CC1(C)C[C@H]2CCCOc3ccc(cc3)S(=O)(=O)NC(=O)c3ccc(-n4ccc(OCCC5(C(F)(F)F)CC5)n4)nc3N1C2` (single isomer, unassigned) [Compound 99, 12,12-dimethyl-8-(3-{2-[1-(trifluoromethyl)cyclopropyl]ethoxy}-1H-pyrazol-1-yl)-18-oxa-2λ^6-thia-3,9,11-triazatetracyclo[17.2.2.111,14.05,10]tetracosa-1(21),5,7,9,19,22-hexaene-2,2,4-trione], the pEC50 was more than 6.00 and the “Max. Activity” value was “+++ (+++ is >60%)”.

Consider `CC1(C)C[C@H]2CCCOc3ccc(cc3)S(=O)(=O)NC(=O)c3ccc(-n4ccc(OCCC5(C(F)(F)F)CC5)n4)nc3N1C2` (single isomer, unassigned) [Compound 100, 12,12-dimethyl-8-(3-{2-[1-(trifluoromethyl)cyclopropyl]ethoxy}-1H-pyrazol-1-yl)-18-oxa-2λ^6-thia-3,9,11-triazatetracyclo[17.2.2.111,14.05,10]tetracosa-1(21),5,7,9,19,22-hexaene-2,2,4-trione], for which the pEC50 is less than 5.52 and the “Max. Activity” value is on record as “+ (+ is <30%)”.

For `CC1(C)C[C@H]2CCCCOc3ccc(cn3)S(=O)(=O)NC(=O)c3ccc(-n4ccc(OCCC5(C(F)(F)F)CC5)n4)nc3N1C2` (single isomer, unassigned) [Compound 103, 12,12-dimethyl-8-(3-{2-[1-(trifluoromethyl)cyclopropyl]ethoxy}-1H-pyrazol-1-yl)-19-oxa-2λ^6-thia-3,9,11,21-tetraazatetracyclo[18.2.2.111,14.05,10]pentacosa-1(23),5,7,9,20(24),21-hexaene-2,2,4-trione], the pEC50 was more than 6.00 and the “Max. Activity” value is “++ (++ is 30-60%)”.

For `CC1(C)C[C@H]2CCCCOc3ccc(cn3)S(=O)(=O)NC(=O)c3ccc(-n4ccc(OCCC5(C(F)(F)F)CC5)n4)nc3N1C2` (single isomer, unassigned) [Compound 104, 12,12-dimethyl-8-(3-{2-[1-(trifluoromethyl)cyclopropyl]ethoxy}-1H-pyrazol-1-yl)-19-oxa-2λ^6-thia-3,9,11,21-tetraazatetracyclo[18.2.2.111,14.05,10]pentacosa-1(23),5,7,9,20(24),21-hexaene-2,2,4-trione], the pEC50 was less than 5.52 and the “Max. Activity” value is “+ (+ is <30%)”.

On to `CC1(C)C[C@H]2CCCNc3cccc(n3)S(=O)(=O)NC(=O)c3ccc(-n4ccc(OCC5C6(CC6)C56CC6)n4)nc3N1C2` (single isomer, unassigned) [Compound 106, 8-[3-({dispiro[2.0.2.1]heptan-7-yl}methoxy)-1H-pyrazol-1-yl]-12,12-dimethyl-2λ^6-thia-3,9,11,18,23-pentaazatetracyclo[17.3.1.111,14.05,10]tetracosa-1(22),5,7,9,19(23),20-hexaene-2,2,4-trione], for which the pEC50 is more than 6.00 and the “Max. Activity” value is recorded as “+++ (+++ is >60%)”.

As to `CC1(C)C[C@H]2CCCNc3cccc(n3)S(=O)(=O)NC(=O)c3ccc(-n4ccc(OCC5C6(CC6)C56CC6)n4)nc3N1C2` (single isomer, unassigned) [Compound 107, 8-[3-({dispiro[2.0.2.1]heptan-7-yl}methoxy)-1H-pyrazol-1-yl]-12,12-dimethyl-2λ^6-thia-3,9,11,18,23-pentaazatetracyclo[17.3.1.111,14.05,10]tetracosa-1(22),5,7,9,19(23),20-hexaene-2,2,4-trione], the pEC50 was more than 6.00 and the “Max. Activity” value is reported as “+++ (+++ is >60%)”.
